Data set [1] in a line: Metabolic (liver microsomal) stability assay. To be noted: human liver microsomes, 1 μM test compound. Background: Liver microsomes are a subcellular fraction often used to study metabolism.
Description: The liver microsomal stability assay is used for early assessment of metabolic stability of a test compound in liver microsomes.
Liver microsomes were preincubated with test compound for 10 minutes at 37° C. in 100 mM potassium phosphate buffer, pH 7.4. The reactions were initiated by adding NADPH regenerating system. The final incubation mixtures contained 1 μM test compound, 0.5 mg/mL liver microsomal protein, 1 mM MgCl2, 1 mM NADP, 1 unit/mL isocitric dehydrogenase and 6 mM isocitric acid in 100 mM potassium phosphate buffer, pH 7.4. After incubation times of 0, 3, 6, 9, 15 and 30 minutes at 37° C., 300 μL of cold acetonitrile (including internal standard) was added to 100 μL incubation mixture to terminate the reaction. Following precipitation and centrifugation, the amount of compound remaining in the samples were determined by LC-MS/MS. Controls of no NADPH regenerating system at zero and 30 minutes were also prepared and analyzed.
Another data set deals with STING (IFN-β in hPBMC). As to the kind of experiment: hPBMC cytokine functional assay (IFN-β decrease after Baculovirus stimulation). To be noted: Homo sapiens, Baculovirus MOI 40, 24 hours, read-out: hPBMC_IC50. It counts as cell-based. The protocol: The inhibition of STING by compounds could be measured by the decrease of IFN-β in hPBMC, which is stimulated by a double stranded DNA virus Baculoviurs (Purchased from Genescript, pCMV-Dest Vector virus generation P2 BV stock virus, Sf-900 II medium with 5% FBS, Lot C9835DK230-2/P4DL001). Frozen hPBMC cells (purchased from Stemcell Technologies, cat number is 70025, Lot 191070803C) were thawed at 37° C. water bath, then cells were re-suspended in 50 ml tube using 20 ml Cell culture medium, and then centrifuged for 5 min at 2000 rpm before the supernatant was removed carefully. The cells were re-suspended in culture medium (RPMI-1640 with 1.5 g/L NaHCO3, 4.5 g/L glucose, 10 mM HEPES and 1 mM Na-pyruvate, 10% HI-FBS); 65 μL of the cell suspension was dispensed into 384 well plate (70K cells/well) by Multidrop Combi with at least 3 hours incubation at 37° C., 5% CO2 cell incubator.
Then 4 μL of compound solution per well (final 0.5% DMSO) was transferred by Agilent Bravo followed by infection with 11 μL of Baculovirus at a final MOI of 40. The level of IFN-β secreted in the supernatant of hPBMC was determined after 24 hours of incubation at 37° C. cell incubator by human IFN-β HTRF assay (Cisbio, cat: 62HIFNBPEH) following the manufacture's instruction. CellTiter-Glo kit (Promega, cat: G7573) was applied for the cell viability evaluation using Envision.

The target in data set [2] is human stimulator of interferon genes (STING) (139-379) (Homo sapiens (Human), UniProt Q86WV6). As to the kind of experiment: Microliter plate-based TR-FRET competition-binding assay for binders of STING. The settings on record: Alexa488 probe, read-out: FRET_IC50. The protocol: This is the competition-binding assay to test the compounds' potency to the C-terminal Domain (CTD) and ligand-binding domain of human stimulator of interferon genes (STING). STING (139-379, Q86WV6, http://www.uniprot.org/uniprot) recombinant protein (in 20 mM Tris, 150 mM NaCl, pH 8.0, and expression in Escherichia coli (E. coli) BL21 (DE3)) with a C-terminal flag-tag was employed for the assay. When Alexa-488 labeled active site probe (refer to patent WO2017/175156 A1) bounds to STING (139-379), it accepts the 485 nm emission from Tb-M2-Flag-STING and results in an increase in fluorescence at 520 nm. Compounds that compete for the probe-binding site will reduce 520 nm signal. The assay was run in proxiplate-384 plus (PerkinElmer, cat: 60150300) containing of 2.5 nM STING, 2.5 nM M2-Tb (Cisbio, 61FG2TLA, Lot: 17 A) and 250 nM Alexa488 probe. Plates were centrifuged for 1 min at 1000 rpm, incubated for 30 min at room temperature, and then measured the dual fluorescence emission at 520 nm/485 nM following 320 nm laser excitation on an Envision plate reader (Perkin-Elmer). The compounds' effect on the STING binding is detected by measuring ratiometric fluorescence from time-resolved FRET. The percentage of inhibition of at each compound concentration is calculated on the basis of their changes of TR-FRET efficiency relative to the change of TR-FRET caused by positive control 2′3′cGAMP (Sigma, cat: SML1229).
human stimulator of interferon genes (STING) (139-379), sequence (Q86WV6 139-379): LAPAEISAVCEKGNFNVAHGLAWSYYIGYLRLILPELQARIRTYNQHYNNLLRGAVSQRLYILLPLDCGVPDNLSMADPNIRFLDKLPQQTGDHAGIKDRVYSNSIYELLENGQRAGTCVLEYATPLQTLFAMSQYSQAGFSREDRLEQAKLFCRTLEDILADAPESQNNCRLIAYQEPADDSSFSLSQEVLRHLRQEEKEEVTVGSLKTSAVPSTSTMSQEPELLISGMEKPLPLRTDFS

pIC50: −log10 of the molar value.

For `CN1CCCc2c3c(cccc3nn2C)-c2ccnc(n2)N[C@H]2C[C@@H](C1=O)N(c1ncnc3c1cnn3-c1ccc(F)cc1F)C2` [Example 4, (8S,11S)-10-[1-(2,4-difluorophenyl)pyrazolo[3,4-d]pyrimidin-4-yl]-13,18-dimethyl-5,7,10,13,18,19,26-heptazapentacyclo[15.6.1.1^2,6.1^8,11.0^20,24]hexacosa-1(23),2,4,6(26),17(24),19,21-heptaen-12-one], the “Clearance of human microsome” value in data set [1] worked out at 15.0 mL/min/kg. In addition, the figures for the pIC50 (in the data set on STING (IFN-β in hPBMC); in data set [2]) were 6.38 and 9.30, respectively.
For `CN1CCCc2c3c(cccc3nn2C)-c2cncc(n2)N[C@H]2C[C@@H](C1=O)N(c1ncnc3c1cnn3-c1ccc(F)cc1F)C2` [Example 7, (8S,11S)-10-[1-(2,4-difluorophenyl)pyrazolo[3,4-d]pyrimidin-4-yl]-13,18-dimethyl-4,7,10,13,18,19,26-heptazapentacyclo[15.6.1.1^2,6.1^8,11.0^20,24]hexacosa-1(23),2,4,6(26),17(24),19,21-heptaen-12-one], in that order: 13.3 mL/min/kg, 6.49 and 9.40.
Take `Cn1nc2cccc3c2c1CCCN(CCCO)C(=O)[C@@H]1C[C@@H](CN1c1ncnc2c1cnn2-c1ccc(F)cc1F)Oc1cccc-3c1` [Example 26, (8S,11S)-10-[1-(2,4-difluorophenyl)pyrazolo[3,4-d]pyrimidin-4-yl]-13-(3-hydroxypropyl)-18-methyl-7-oxa-10,13,18,19-tetrazapentacyclo[15.6.1.1^2,6.1^8,11.0^20,24]hexacosa-1(23),2(26),3,5,17(24),19,21-heptaen-12-one]: the pIC50 is 6.99 with STING (IFN-β in hPBMC) and 8.66 in data set [2].
On the same counts, the results for `COCCCN1CCCc2c3c(cccc3nn2C)-c2cccc(c2)O[C@H]2C[C@@H](C1=O)N(c1ncnc3c1cnn3-c1ccc(F)cc1F)C2` [Example 27, (8S,11S)-10-[1-(2,4-difluorophenyl)pyrazolo[3,4-d]pyrimidin-4-yl]-13-(3-methoxypropyl)-18-methyl-7-oxa-10,13,18,19-tetrazapentacyclo[15.6.1.1^2,6.1^8,11.0^20,24]hexacosa-1(23),2(26),3,5,17(24),19,21-heptaen-12-one] are 7.64 and 7.85.
For `Cn1nc2cccc3c2c1CCCN(CCOCc1ccncc1)C(=O)[C@@H]1C[C@@H](CN1c1ncnc2c1cnn2-c1ccc(F)cc1F)Oc1cccc-3c1` [Example 28, (8S,11S)-10-[1-(2,4-difluorophenyl)pyrazolo[3,4-d]pyrimidin-4-yl]-18-methyl-13-[2-(4-pyridylmethoxy)ethyl]-7-oxa-10,13,18,19-tetrazapentacyclo[15.6.1.1^2,6.1^8,11.0^20,24]hexacosa-1(23),2(26),3,5,17(24),19,21-heptaen-12-one], in that order: 6.74 and 9.70.
For `Cn1nc2cccc3c2c1CCCN(CCCc1ccccc1)C(=O)[C@@H]1C[C@@H](CN1c1ncnc2c1cnn2-c1ccc(F)cc1F)Oc1cccc-3c1` [Example 29, (8S,11S)-10-[1-(2,4-difluorophenyl)pyrazolo[3,4-d]pyrimidin-4-yl]-18-methyl-13-(3-phenylpropyl)-7-oxa-10,13,18,19-tetrazapentacyclo[15.6.1.1^2,6.1^8,11.0^20,24]hexacosa-1(23),2(26),3,5,17(24),19,21-heptaen-12-one], in that order: 7.51 and 8.92.
Turning to `Cn1nc2cccc3c2c1CCCN(CCCN1CCOCC1)C(=O)[C@@H]1C[C@@H](CN1c1ncnc2c1cnn2-c1ccc(F)cc1F)Oc1cccc-3c1` [Example 30, (8S,11S)-10-[1-(2,4-difluorophenyl)pyrazolo[3,4-d]pyrimidin-4-yl]-18-methyl-13-(3-morpholinopropyl)-7-oxa-10,13,18,19-tetrazapentacyclo[15.6.1.1^2,6.1^8,11.0^20,24]hexacosa-1(23),2(26),3,5,17(24),19,21-heptaen-12-one], the pIC50 in the data set on STING (IFN-β in hPBMC) is 6.76; in data set [2], 8.70.
For `CC(=O)N1CCN(CCCN2CCCc3c4c(cccc4nn3C)-c3cccc(c3)O[C@H]3C[C@@H](C2=O)N(c2ncnc4c2cnn4-c2ccc(F)cc2F)C3)CC1` [Example 33, (8S,11S)-13-[3-(4-acetylpiperazin-1-yl)propyl]-10-[1-(2,4-difluorophenyl)pyrazolo[3,4-d]pyrimidin-4-yl]-18-methyl-7-oxa-10,13,18,19-tetrazapentacyclo[15.6.1.1^2,6.1^8,11.0^20,24]hexacosa-1(23),2(26),3,5,17(24),19,21-heptaen-12-one], in that order: 6.09 and 8.77.
On the same counts, the results for `Cn1nc2cccc3c2c1CCCN(CCCN1CCN(S(C)(=O)=O)CC1)C(=O)[C@@H]1C[C@@H](CN1c1ncnc2c1cnn2-c1ccc(F)cc1F)Oc1cccc-3c1` [Example 35, (8S,11S)-10-[1-(2,4-difluorophenyl)pyrazolo[3,4-d]pyrimidin-4-yl]-18-methyl-13-[3-(4-methylsulfonylpiperazin-1-yl)propyl]-7-oxa-10,13,18,19-tetrazapentacyclo[15.6.1.1^2,6.1^8,11.0^20,24]hexacosa-1(23),2(26),3,5,17(24),19,21-heptaen-12-one] are 6.74 and 9.70.
For `Cn1nc2cccc3c2c1CCCN(CCCn1ccnc1)C(=O)[C@@H]1C[C@@H](CN1c1ncnc2c1cnn2-c1ccc(F)cc1F)Oc1cccc-3c1` [Example 38, (8S,11S)-10-[1-(2,4-difluorophenyl)pyrazolo[3,4-d]pyrimidin-4-yl]-13-(3-imidazol-1-ylpropyl)-18-methyl-7-oxa-10,13,18,19-tetrazapentacyclo[15.6.1.1^2,6.1^8,11.0^20,24]hexacosa-1(23),2(26),3,5,17(24),19,21-heptaen-12-one], in that order: 6.33 and 9.05.
In the case of `Cn1nc2cccc3c2c1CCCN(CCCc1ccccc1)C(=O)[C@@H]1C[C@@H](CN1c1ncnc2c1cnn2-c1ccc(F)cc1F)Oc1cccc-3n1` [Example 41, (8S,11S)-10-[1-(2,4-difluorophenyl)pyrazolo[3,4-d]pyrimidin-4-yl]-18-methyl-13-(3-phenylpropyl)-7-oxa-10,13,18,19,26-pentazapentacyclo[15.6.1.1^2,6.1^8,11.0^20,24]hexacosa-1(23),2(26),3,5,17(24),19,21-heptaen-12-one], the pIC50 in the data set on STING (IFN-β in hPBMC) was 7.32; in data set [2], 8.68.
For the compound `Cn1nc2cccc3c2c1CCCN(CCCO)C(=O)[C@@H]1C[C@@H](CN1c1ncnc2c1cnn2-c1ccc(F)cc1F)Nc1cccc-3n1` [Example 42, (8S,11S)-10-[1-(2,4-difluorophenyl)pyrazolo[3,4-d]pyrimidin-4-yl]-13-(3-hydroxypropyl)-18-methyl-7,10,13,18,19,26-hexazapentacyclo[15.6.1.1^2,6.1^8,11.0^20,24]hexacosa-1(23),2(26),3,5,17(24),19,21-heptaen-12-one], the “Clearance of human microsome” value in data set [1] stood at 13.3 mL/min/kg. In addition, the pIC50 in data set [2] was 8.28.
On the same counts, the results for `COc1cc(F)ccc1-n1ncc2c(N3C[C@@H]4C[C@H]3C(=O)N(CCCN3CCOCC3)CCCc3c5c(cccc5nn3C)-c3cc(C)cc(n3)N4)ncnc21` [Example 46, (8S,11S)-10-[1-(4-fluoro-2-methoxy-phenyl)pyrazolo[3,4-d]pyrimidin-4-yl]-4,18-dimethyl-13-(3-morpholinopropyl)-7,10,13,18,19,26-hexazapentacyclo[15.6.1.1^2,6.1^8,11.0^20,24]hexacosa-1(23),2(26),3,5,17(24),19,21-heptaen-12-one] are 14.9 mL/min/kg and 8.12.

The values above are taken from patent publication US20260070927A1, “INDAZOLE MACROCYCLES FOR THE TREATMENT OF AUTOIMMUNE DISEASE” (Hoffmann-La Roche Inc., priority 2022, published 2026).
